Experimental data published in ChEMBL document CHEMBL2040736, “Design of potent and selective hybrid inhibitors of the mitotic kinase Nek2: structure-activity relationship, structural biology, and cellular activity” (J Med Chem, 2012).

What was measured:
[1] = biological target: T1, Hepatocyte growth factor receptor (Homo sapiens, UniProt P08581); assay: Inhibition of MET incubated for 30 mins prior to substrate addition study done at apparent ATP Km for enzyme
[2] = Inhibition of CH1D at 1 uM incubated for 30 mins prior to substrate addition study done at apparent ATP Km for enzyme
[3] = biological target: Cyclin-dependent kinase 2 (Homo sapiens, UniProt P24941); assay: Inhibition of CDK2 by caliper method
[4] = biological target: Ribosomal protein S6 kinase alpha-1 (Homo sapiens) (UniProt Q15418); assay: Inhibition of RSK1 at 1 uM incubated for 30 mins prior to substrate addition study done at apparent ATP Km for enzyme
[5] = biological target: Serine/threonine-protein kinase Chk1 (Homo sapiens) (UniProt O14757); assay: Inhibition of CHK1 at 1 uM incubated for 30 mins prior to substrate addition study done at apparent ATP Km for enzyme
Sequence of Serine/threonine-protein kinase Chk1 (Homo sapiens) (O14757 whole entry): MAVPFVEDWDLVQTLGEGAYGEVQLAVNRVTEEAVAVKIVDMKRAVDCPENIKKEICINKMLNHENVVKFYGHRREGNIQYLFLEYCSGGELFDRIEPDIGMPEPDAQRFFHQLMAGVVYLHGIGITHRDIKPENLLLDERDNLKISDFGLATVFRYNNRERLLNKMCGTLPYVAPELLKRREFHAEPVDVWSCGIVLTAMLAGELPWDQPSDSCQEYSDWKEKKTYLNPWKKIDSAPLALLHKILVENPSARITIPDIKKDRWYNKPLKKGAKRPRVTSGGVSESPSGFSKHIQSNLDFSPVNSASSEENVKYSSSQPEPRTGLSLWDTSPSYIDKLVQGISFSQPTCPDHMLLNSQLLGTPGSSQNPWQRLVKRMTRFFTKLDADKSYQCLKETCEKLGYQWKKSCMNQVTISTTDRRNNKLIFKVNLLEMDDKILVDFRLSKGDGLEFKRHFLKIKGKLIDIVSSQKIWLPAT

[6] = biological target: Tyrosine-protein kinase Fyn (Homo sapiens, UniProt P06241); assay: Inhibition of FYN at 1 uM incubated for 30 mins prior to substrate addition study done at apparent ATP Km for enzyme
Sequence of Tyrosine-protein kinase Fyn (P06241 2-537 limits assumed): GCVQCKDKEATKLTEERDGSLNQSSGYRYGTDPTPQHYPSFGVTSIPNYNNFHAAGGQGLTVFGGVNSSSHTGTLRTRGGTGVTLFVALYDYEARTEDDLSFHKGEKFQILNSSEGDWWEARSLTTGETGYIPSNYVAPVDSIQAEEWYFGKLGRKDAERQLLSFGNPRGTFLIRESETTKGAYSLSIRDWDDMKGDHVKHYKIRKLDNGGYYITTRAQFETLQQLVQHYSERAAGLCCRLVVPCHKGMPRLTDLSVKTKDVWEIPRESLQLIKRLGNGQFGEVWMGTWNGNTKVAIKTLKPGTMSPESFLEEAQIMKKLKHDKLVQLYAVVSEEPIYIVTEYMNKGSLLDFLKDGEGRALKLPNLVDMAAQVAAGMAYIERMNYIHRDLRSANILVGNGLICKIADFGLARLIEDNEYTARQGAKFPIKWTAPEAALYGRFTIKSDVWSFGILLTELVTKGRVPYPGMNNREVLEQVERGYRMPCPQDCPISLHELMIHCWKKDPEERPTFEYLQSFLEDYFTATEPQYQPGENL

[7] = biological target: T2, Dual specificity protein kinase TTK (Homo sapiens, UniProt P33981); assay: Inhibition of MPS1 by caliper method
T2 sequence (P33981 whole entry): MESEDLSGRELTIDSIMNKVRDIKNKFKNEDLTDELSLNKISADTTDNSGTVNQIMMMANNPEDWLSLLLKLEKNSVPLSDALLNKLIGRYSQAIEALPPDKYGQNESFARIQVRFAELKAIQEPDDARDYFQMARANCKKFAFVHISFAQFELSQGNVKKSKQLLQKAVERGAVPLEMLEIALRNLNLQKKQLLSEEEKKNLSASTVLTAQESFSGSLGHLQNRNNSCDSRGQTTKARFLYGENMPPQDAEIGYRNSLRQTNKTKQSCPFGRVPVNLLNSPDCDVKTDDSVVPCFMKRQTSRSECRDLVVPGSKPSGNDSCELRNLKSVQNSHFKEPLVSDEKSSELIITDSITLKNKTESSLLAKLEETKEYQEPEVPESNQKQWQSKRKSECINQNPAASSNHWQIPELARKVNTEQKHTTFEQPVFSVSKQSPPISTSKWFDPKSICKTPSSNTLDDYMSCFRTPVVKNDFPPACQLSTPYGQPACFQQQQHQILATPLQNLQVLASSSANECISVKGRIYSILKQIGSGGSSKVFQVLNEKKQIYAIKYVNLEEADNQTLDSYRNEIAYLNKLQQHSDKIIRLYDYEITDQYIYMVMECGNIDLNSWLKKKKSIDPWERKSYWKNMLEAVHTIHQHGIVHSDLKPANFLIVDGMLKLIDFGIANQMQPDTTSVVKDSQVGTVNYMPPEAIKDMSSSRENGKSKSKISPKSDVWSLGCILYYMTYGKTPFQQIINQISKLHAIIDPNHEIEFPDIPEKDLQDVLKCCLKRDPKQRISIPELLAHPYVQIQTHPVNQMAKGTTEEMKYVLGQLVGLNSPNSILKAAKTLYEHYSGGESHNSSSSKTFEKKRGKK

[8] = biological target: Glycogen synthase kinase-3 beta (Homo sapiens, UniProt P49841); assay: Inhibition of GSK3beta incubated for 30 mins prior to substrate addition study done at apparent ATP Km for enzyme
Sequence of Glycogen synthase kinase-3 beta (P49841 whole entry): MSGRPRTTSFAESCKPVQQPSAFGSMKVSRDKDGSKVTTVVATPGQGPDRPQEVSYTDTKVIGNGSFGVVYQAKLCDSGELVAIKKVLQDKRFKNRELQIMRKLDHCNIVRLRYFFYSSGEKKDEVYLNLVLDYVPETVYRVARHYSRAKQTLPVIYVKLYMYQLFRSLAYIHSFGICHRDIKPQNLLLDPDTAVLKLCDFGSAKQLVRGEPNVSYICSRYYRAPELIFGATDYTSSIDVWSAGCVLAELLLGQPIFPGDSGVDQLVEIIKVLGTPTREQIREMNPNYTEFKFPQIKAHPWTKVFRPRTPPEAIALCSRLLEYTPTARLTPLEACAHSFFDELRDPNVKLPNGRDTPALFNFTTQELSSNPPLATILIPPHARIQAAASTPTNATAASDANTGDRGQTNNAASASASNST

[9] = Inhibition of CH1D incubated for 30 mins prior to substrate addition study done at apparent ATP Km for enzyme
[10] = biological target: T3, Proto-oncogene tyrosine-protein kinase Src (Homo sapiens, UniProt P12931); details: 1 uM
T3 sequence (P12931 2-536 limits assumed): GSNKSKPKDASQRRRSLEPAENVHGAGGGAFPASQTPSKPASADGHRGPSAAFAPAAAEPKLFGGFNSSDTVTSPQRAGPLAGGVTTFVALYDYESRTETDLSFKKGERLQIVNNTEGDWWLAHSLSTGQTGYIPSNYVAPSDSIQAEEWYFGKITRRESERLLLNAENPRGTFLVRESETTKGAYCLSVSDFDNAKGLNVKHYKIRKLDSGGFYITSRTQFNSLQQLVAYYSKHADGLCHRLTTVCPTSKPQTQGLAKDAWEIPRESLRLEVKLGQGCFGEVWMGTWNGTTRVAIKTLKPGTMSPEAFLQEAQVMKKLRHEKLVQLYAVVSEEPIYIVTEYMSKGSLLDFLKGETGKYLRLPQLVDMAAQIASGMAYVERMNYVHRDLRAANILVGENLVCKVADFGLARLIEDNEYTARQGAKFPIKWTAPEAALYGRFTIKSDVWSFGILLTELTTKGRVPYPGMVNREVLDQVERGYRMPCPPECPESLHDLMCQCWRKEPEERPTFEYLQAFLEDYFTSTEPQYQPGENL

[11] = biological target: Serine/threonine-protein kinase D2 (Homo sapiens) (UniProt Q9BZL6); assay: Inhibition of PKD2 at 1 uM incubated for 30 mins prior to substrate addition study done at apparent ATP Km for enzyme
[12] = biological target: Tyrosine-protein kinase Lck (Homo sapiens, UniProt P06239); assay: Inhibition of LCK at 1 uM incubated for 30 mins prior to substrate addition study done at apparent ATP Km for enzyme
Sequence of Tyrosine-protein kinase Lck (P06239 2-509 limits assumed): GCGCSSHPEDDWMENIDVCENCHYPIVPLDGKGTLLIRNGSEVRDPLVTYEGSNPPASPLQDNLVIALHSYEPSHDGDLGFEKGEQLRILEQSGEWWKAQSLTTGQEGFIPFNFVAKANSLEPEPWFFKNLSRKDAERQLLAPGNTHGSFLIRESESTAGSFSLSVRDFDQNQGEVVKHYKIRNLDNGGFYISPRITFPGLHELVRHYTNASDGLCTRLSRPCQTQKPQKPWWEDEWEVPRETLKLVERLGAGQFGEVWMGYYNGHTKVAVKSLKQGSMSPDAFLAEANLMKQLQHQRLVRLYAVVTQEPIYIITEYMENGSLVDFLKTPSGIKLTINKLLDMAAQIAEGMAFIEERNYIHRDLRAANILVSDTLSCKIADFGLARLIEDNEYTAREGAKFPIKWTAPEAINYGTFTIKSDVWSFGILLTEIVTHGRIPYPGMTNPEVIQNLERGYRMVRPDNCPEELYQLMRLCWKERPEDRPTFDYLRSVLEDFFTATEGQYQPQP

[13] = biological target: T3, Proto-oncogene tyrosine-protein kinase Src; assay: Inhibition of SRC incubated for 30 mins prior to substrate addition study done at apparent ATP Km for enzyme
[14] = biological target: T1, Hepatocyte growth factor receptor; details: 1 uM
[15] = biological target: Tyrosine-protein kinase Lyn (Homo sapiens, UniProt P07948); assay: Inhibition of LYN incubated for 30 mins prior to substrate addition study done at apparent ATP Km for enzyme
Sequence of Tyrosine-protein kinase Lyn (P07948 whole entry): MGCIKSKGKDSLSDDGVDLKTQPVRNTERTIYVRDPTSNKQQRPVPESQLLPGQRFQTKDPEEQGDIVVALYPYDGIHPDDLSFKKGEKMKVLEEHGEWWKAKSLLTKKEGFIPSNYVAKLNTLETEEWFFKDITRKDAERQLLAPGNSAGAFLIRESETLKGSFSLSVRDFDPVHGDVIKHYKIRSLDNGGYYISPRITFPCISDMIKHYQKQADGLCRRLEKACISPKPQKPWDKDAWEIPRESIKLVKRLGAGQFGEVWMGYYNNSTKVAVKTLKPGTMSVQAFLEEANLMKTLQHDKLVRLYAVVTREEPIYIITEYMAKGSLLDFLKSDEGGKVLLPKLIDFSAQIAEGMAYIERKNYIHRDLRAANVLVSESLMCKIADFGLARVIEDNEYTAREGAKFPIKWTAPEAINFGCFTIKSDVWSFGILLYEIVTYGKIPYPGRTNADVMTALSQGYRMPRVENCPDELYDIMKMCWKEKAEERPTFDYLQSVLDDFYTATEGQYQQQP

T1 sequence (P08581 whole entry): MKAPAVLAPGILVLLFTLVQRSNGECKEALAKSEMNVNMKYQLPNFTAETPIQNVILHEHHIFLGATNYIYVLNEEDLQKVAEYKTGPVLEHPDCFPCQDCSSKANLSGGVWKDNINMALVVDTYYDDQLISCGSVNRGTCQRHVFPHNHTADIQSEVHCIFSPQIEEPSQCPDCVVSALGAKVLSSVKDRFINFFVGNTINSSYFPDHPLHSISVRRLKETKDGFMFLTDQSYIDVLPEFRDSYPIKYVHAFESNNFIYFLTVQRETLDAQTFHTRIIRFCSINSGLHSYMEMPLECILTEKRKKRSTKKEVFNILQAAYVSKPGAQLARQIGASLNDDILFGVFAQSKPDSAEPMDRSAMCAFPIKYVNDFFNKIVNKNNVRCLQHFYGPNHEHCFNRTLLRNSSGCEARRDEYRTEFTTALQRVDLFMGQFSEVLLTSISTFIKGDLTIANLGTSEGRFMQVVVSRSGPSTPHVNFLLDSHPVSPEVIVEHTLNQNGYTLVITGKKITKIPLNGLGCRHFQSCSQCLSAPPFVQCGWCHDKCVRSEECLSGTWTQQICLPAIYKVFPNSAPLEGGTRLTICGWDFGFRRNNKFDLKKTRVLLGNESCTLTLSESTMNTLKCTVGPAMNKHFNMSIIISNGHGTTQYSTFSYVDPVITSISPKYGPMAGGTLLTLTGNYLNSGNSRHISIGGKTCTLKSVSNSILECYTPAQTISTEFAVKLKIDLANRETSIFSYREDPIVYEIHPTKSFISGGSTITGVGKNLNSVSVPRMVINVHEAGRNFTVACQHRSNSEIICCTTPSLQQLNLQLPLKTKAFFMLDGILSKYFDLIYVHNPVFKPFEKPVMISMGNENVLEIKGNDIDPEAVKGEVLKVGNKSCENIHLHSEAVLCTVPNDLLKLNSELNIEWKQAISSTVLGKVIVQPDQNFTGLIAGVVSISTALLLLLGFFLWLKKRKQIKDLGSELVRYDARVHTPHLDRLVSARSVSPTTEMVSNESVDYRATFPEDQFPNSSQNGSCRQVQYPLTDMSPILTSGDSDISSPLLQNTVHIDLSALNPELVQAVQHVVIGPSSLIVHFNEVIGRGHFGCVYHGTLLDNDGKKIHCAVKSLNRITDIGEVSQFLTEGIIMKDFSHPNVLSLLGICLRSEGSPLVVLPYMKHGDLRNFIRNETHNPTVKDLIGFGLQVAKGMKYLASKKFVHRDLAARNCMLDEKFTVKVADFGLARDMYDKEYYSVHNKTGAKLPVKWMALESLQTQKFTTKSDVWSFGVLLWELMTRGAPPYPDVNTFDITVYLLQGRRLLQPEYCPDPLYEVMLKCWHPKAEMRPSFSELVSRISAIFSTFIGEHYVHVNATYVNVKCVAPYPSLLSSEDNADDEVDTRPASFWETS

Compound `C[C@H](/C=C\C(F)(F)F)Oc1cc(-c2cc(-c3cc(CN(C)C)cs3)cnc2N)ccc1C(N)=O` has an IC50 [1] of 1170 nM, an inhibition [2] of 67% and an IC50 [3] of 4.57 µM. It also gave an inhibition [4] of 29%, an inhibition [5] of 11% and an inhibition [6] of 57%. For the same compound, the IC50 [7] was 8.47 µM, the IC50 [8] was 70 nM and the IC50 [9] was 430 nM. It also gave an inhibition [10] of 51%, an inhibition [11] of 77% and an inhibition [12] of 89%. The IC50 [13] was 840 nM, the inhibition [14] was 46% and the IC50 [15] was 1360 nM.
